Experimental data reported in patent publication US20070042959A1, “Thrombin-inhibiting peptides” (priority 1997, published 2007).

What was measured:
[1] = tested on: blood clotting (human citrate plasma); assay: activated partial thromboplastin time (APTT), action on blood clotting; format: biochemical; conditions: at low concentrations; pre-clinical data, see sample application 1
Protocol: The action of triabin and hirudin on blood clotting was measured by determining the activated partial thromboplastin time (APTT). 100 μl of human citrate plasma, 10 μl of inhibitor (triabin or hirudin) and 100 μl of APTT reagent (pathromtin from the Behring Company) were incubated for 3 minutes at 37° C. After 100 μl of a 25 mmol CaCl2 solution was added, the time until clots formed was measured. The measuring was carried out in a fibrometer of the Sarstedt Company. The results are indicated in an extension of the clotting time, which was measured without adding inhibitor.

[2] = clinical studies; easily overdosed; cited from earlier work

For hirudin, the inhibition of clotting [1] is given as “inhibits at low concentrations” and the bleeding on overdosing [2] is given as “severe bleeding complications”.
